{"source": "patent US11098062B2", "about": "“Monocyclic and bicyclic ring system substituted carbanucleoside analogues for use as PRMT5 inhibitors” (Janssen Pharmaceutica NV, priority 2016, dated 2021)", "data": [{"target": "T1, PRMT5-MEP50 enzyme (Homo sapiens, UniProt O14744)", "T1 construct": "One virus expresses full length human PRMT5 with Flag-tag at N-terminus; Flag (N); purchased Charles River (Argenta); host or cells: insect cells (Sf9), baculovirus co-infection", "T1 sequence (O14744 whole entry)": "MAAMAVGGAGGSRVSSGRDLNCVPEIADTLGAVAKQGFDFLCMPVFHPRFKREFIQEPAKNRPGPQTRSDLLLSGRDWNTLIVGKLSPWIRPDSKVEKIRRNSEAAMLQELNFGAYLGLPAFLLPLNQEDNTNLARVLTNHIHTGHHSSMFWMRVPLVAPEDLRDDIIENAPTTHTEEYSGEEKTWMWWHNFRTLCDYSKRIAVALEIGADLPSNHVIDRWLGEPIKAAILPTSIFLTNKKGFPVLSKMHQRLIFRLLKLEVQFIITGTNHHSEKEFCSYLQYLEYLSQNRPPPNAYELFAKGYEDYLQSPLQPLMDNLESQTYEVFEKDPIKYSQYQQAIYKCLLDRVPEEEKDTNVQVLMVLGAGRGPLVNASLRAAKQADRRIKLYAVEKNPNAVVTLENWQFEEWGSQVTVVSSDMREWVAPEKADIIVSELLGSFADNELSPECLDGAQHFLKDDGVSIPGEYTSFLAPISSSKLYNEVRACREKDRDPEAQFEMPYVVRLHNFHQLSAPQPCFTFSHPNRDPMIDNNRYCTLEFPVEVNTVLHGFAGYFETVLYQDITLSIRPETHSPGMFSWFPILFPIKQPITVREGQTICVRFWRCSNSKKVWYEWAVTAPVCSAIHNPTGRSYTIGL", "T1 sequence (Q9BQA1 whole entry partner)": "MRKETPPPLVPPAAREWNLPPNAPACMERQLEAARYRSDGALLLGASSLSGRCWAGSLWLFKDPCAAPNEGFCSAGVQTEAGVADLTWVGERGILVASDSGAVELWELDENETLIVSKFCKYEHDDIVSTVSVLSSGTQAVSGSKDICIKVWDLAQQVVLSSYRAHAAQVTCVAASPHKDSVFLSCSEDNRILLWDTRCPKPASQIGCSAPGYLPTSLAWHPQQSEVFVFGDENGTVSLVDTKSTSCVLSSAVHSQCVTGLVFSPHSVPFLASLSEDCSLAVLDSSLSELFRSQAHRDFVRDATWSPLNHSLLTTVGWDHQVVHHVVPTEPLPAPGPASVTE", "test": "In vitro assay 1b: PRMT5-MEP50 high throughput mass spectrometer assay (SAH formation), 1.25 nM enzyme", "type": "biochemical", "conditions": "1.25 nM enzyme, 1 μM SAM, 0.3 μM H2A, 30° C., 120 min; averaged values; read-out: pIC50 Assay 1b (converted)", "description": "Experimental Procedures In Vitro Assay (Assay 1a and 1b)\nPRMT5-MEP50 enzyme was purchased from Charles River (Argenta). The enzyme complex was produced in insect cells (Sf9) infected simultaneously with two baculoviruses. One virus expresses full length human PRMT5 with Flag-tag at N-terminus, the second virus expresses full length MEP50 with His6-TEV cleavage at N-terminus. The protein was affinity purified using anti-Flag (M2) beads eluted with 3×FLAG peptide, followed by His-Select eluted with 0.5M imidazole. Eluted protein was then dialysed against tris-buffered saline (TBS) (pH 8.0) containing 20% glycerol and 3 mM dithiothreitol (DTT).\nFull-length untagged human recombinant histone H2A (residues 1-130, Genbank Accession #NM_021052, MW=14.1 kDa) expressed in E. coli was purchased from Reaction Biology Corporation, Cat #HMT-11-146. Reagents used for making reaction buffer or stopping reaction were purchased including Tris base (Sigma Cat #T-1503), NaCl (Sigma Cat #RGF-3270), MgCl2 (Sigma Cat #M0250), DTT (Invitrogen Cat #15508-013) and Formic Acid (Riedel deHaen, Cat #33015)\nPRMT5 catalyzes the sequential methylations of the terminal nitrogen atoms on the guanidine groups of arginine residues within proteins using co-substrate S-adenosyl-L-methionine (AdoMet, SAM), forming mono-methyl (MMA), syrmmetric-dimethyl arginine (sDMA) and S-adenosyl-L-homocysteine (AdoHcy, SAH). The enzyme activity was determined by following the product SAH formation using high throughput mass spectrometry (Agilent Rapidfire 300 System coupled to a Sciex 4000 series QTrap® triple-quad MS/MS). The reaction buffer was 20 mM Tris-HCl, pH 8.5, 50 mM NaCl, 5 mM MgCl2 and 1 mM DTT. The reaction activity was stopped using 1% formic acid (final concentration).\nThe IC50 Studies were performed using eleven point dosing series made for each compound by serially diluted 1:2 in dimethyl sulfoxide (DMSO), with point 12 being a DMSO control. Compounds were first spotted to plates, and followed by addition of 2 μM SAM and 0.6 μM H2A (histone H2A) solution mixture. The same volume of enzyme solution was added to initiate the enzymatic reactions. The final concentrations of the reaction are at 1 μM SAM, 0.3 μM H2A and 10 nM enzyme (assay 1a) or or 1.25 nM enzyme (assay 1b). The reaction was incubated at 30° C. for 60 minutes (min) when 10 nM enzyme was used and for 120 min when 1.25 nM enzyme was used. Subsequently, the reaction was quenched by addition of formic acid to a final concentration of 1%. The inhibitions of SAH formation in the presence of compounds were calculated as a percentage of the control relative to the uninhibited reaction as a function of inhibitor concentration. The data were fit as follows: Y=Bottom+(Top−Bottom)/(1+10^((log IC50−X)*h))\nwhere IC50 is the inhibitor concentration (same unit as X) at 50% inhibition and h is the Hill slope. Y is percent of inhibition, X is log of compound concentration. Bottom and Top are the plateaus in same units as Y.", "units": {"IC50": "nM"}, "values": [{"molecule": "Nc1ncnc2c1ccn2[C@@H]1C[C@H](CCc2cnc3c(c2)CCN3)[C@@H](O)[C@H]1O", "note": "[Compound 73]", "IC50": 25.1}, {"molecule": "Nc1ncnc2c1ccn2[C@@H]1C[C@H](CCCc2cccc3ccncc23)[C@@H](O)[C@H]1O", "note": "[Compound 51]", "IC50": 316}, {"molecule": "Nc1ncnc2c1ccn2[C@@H]1C[C@H](CCc2cccnc2)[C@@H](O)[C@H]1O", "note": "[Compound 67]", "IC50": 501}, {"molecule": "Nc1ncnc2c1ccn2[C@@H]1C[C@H](CCCCc2ccncc2)[C@@H](O)[C@H]1O", "note": "[Compound 63]", "IC50": 2000}, {"molecule": "Nc1ncnc2c1ccn2[C@@H]1C[C@H](CCCCc2cnc3ccccc3c2)[C@@H](O)[C@H]1O", "note": "[Compound 62]", "IC50": 794}, {"molecule": "Nc1ncnc2c1ccn2[C@@H]1C[C@H](CCCc2ccncc2)[C@@H](O)[C@H]1O", "note": "[Compound 49]", "IC50": "> 2510"}, {"molecule": "Nc1ncnc2c1ccn2[C@@H]1C[C@H](CCCCc2cccc3cccnc23)[C@@H](O)[C@H]1O", "note": "[Compound 58]", "IC50": "> 2510"}, {"molecule": "Nc1ncnc2c1ccn2[C@@H]1C[C@H](CCCCc2ccc3cccnc3c2)[C@@H](O)[C@H]1O", "note": "[Compound 60]", "IC50": 251}, {"molecule": "Nc1ncnc2c1ccn2[C@@H]1C[C@H](CCc2cn[nH]c2)[C@@H](O)[C@H]1O", "note": "[Compound 68]", "IC50": 1260}, {"molecule": "CC(c1cncn1C)[C@H]1C[C@@H](n2ccc3c(N)ncnc32)[C@H](O)[C@@H]1O", "note": "(some centres unmarked) [Compound 39]", "IC50": 2000}, {"molecule": "Nc1ncnc2c1ccn2[C@@H]1C[C@H](CCCc2ccc3cccnc3c2)[C@@H](O)[C@H]1O", "note": "[Compound 47]", "IC50": 1580}, {"molecule": "Nc1ncnc2c1ccn2[C@@H]1C[C@H](CCCc2cnc3ccccc3c2)[C@@H](O)[C@H]1O", "note": "[Compound 43]", "IC50": 251}, {"molecule": "Nc1ccc2cccc(CCC[C@H]3C[C@@H](n4ccc5c(N)ncnc54)[C@H](O)[C@@H]3O)c2n1", "note": "[Compound 50]", "IC50": 31.6}, {"molecule": "Nc1cc(CCCC[C@H]2C[C@@H](n3ccc4c(N)ncnc43)[C@H](O)[C@@H]2O)ccn1", "note": "[Compound 57]", "IC50": 79.4}, {"molecule": "Nc1ncnc2c1ccn2[C@@H]1C[C@H](Cn2ccc3ccncc32)[C@@H](O)[C@H]1O", "note": "[Compound 75]", "IC50": 251}, {"molecule": "Nc1ncc(CC[C@H]2C[C@@H](n3ccc4c(N)ncnc43)[C@H](O)[C@@H]2O)cn1", "note": "[Compound 69]", "IC50": 2000}, {"molecule": "Nc1ncnc2c1ccn2[C@@H]1C[C@H](CCCCc2cccc3ccncc23)[C@@H](O)[C@H]1O", "note": "[Compound 66]", "IC50": 39.8}, {"molecule": "Nc1ncnc2c1ccn2[C@@H]1C[C@H](CCCc2ccccn2)[C@@H](O)[C@H]1O", "note": "[Compound 46]", "IC50": "> 2510"}, {"molecule": "Cc1cn2ccc(OC[C@H]3C[C@@H](n4ccc5c(N)ncnc54)[C@H](O)[C@@H]3O)cc2n1", "note": "[Compound 33]", "IC50": 5.01}, {"molecule": "Nc1cc(/C=C/[C@H]2C[C@@H](n3ccc4c(N)ncnc43)[C@H](O)[C@@H]2O)ccn1", "note": "[Compound 36]", "IC50": 2000}, {"molecule": "Nc1ccc2cccc(CCCC[C@H]3C[C@@H](n4ccc5c(N)ncnc54)[C@H](O)[C@@H]3O)c2n1", "note": "[Compound 65]", "IC50": 10}, {"molecule": "Nc1cc2cccc(CCCC[C@H]3C[C@@H](n4ccc5c(N)ncnc54)[C@H](O)[C@@H]3O)c2cn1", "note": "[Compound 54]", "IC50": 100}, {"molecule": "Nc1cccc(/C=C/[C@H]2C[C@@H](n3ccc4c(N)ncnc43)[C@H](O)[C@@H]2O)n1", "note": "[Compound 37]", "IC50": 794}, {"molecule": "Nc1ccc(CCCC[C@H]2C[C@@H](n3ccc4c(N)ncnc43)[C@H](O)[C@@H]2O)cn1", "note": "[Compound 56]", "IC50": 7.94}, {"molecule": "Nc1ncnc2c1ccn2[C@@H]1C[C@H](CCCCc2ccn3ccnc3c2)[C@@H](O)[C@H]1O", "note": "[Compound 61]", "IC50": 7.94}, {"molecule": "Nc1ncnc2c1ccn2[C@@H]1C[C@H](CCc2cnc(Nc3ccc(Cl)cc3)nc2)[C@@H](O)[C@H]1O", "note": "[Compound 70]", "IC50": 501}, {"molecule": "Nc1cccc(CCC[C@H]2C[C@@H](n3ccc4c(N)ncnc43)[C@H](O)[C@@H]2O)n1", "note": "[Compound 40]", "IC50": 79.4}, {"molecule": "Nc1ncnc2c1ccn2[C@@H]1C[C@H](CCCCc2cnc3c(N)cccc3c2)[C@@H](O)[C@H]1O", "note": "[Compound 59]", "IC50": 2000}, {"molecule": "Nc1ncnc2c1ccn2[C@@H]1C[C@H](CCCCc2ccccn2)[C@@H](O)[C@H]1O", "note": "[Compound 64]", "IC50": 100}]}]}
